In EP4782437A1, “HETEROARYL COMPOUND, AND PREPARATION METHOD THEREFOR AND USE THEREOF IN MEDICINE” (Jiangsu Hengrui Pharmaceuticals Co., Ltd., priority 2023, dated 2025):

Key:
[1] = test system: mouse RPA model; test: Efficacy in mouse RPA model (acute urticaria induced by OVA antigen and anti-OVA IgG); format: in vivo, C57BL/6N mice; conditions: single dose, p.o.; for inhibition of OVA-induced skin swelling in mice: compared with the model group
Description: To evaluate the efficacy of compound 3 in a mouse RPA model.
The administration volume of the vehicle was 10 ml/kg, and that of compound 3 was 20 ml/kg. The vehicle consisted of 0.5% MC + 0.5% Tween 80 + 99% water.
Thirty-three female C57BL/6N mice weighing 18-20 g were purchased from Vital River Laboratories. Animal production license No.: SCXK (Zhe) 2024-0001; animal qualification certificate No.: 20240229Abzz0619000122. The mice were housed in an SPF-grade animal facility under a 12/12-hour light/dark cycle, with a constant temperature of 23°C ± 1°C and a relative humidity of 50-60%. Food and water were provided ad libitum.
After acclimatisation, the mice were grouped and administered as follows: Table 4. Animal grouping and dosing regimen for in vivo efficacy experiment
After acclimatisation, the mice were shaved on the back one day prior to the experiment for skin preparation. On the day of the experiment, the mice were administered the vehicle control or compound 3 via oral gavage at administration volumes of 10 ml/kg and 20 ml/kg, respectively. Two hours post-administration, the mice were anaesthetised with isoflurane, and the thickness of the dorsal skin was measured using a vernier calliper. Upon completion of the measurement, 30 µg of mouse anti-OVA IgG was intradermally injected into the dorsal skin of the mice, while an equal volume of PBS was injected into the control group. Simultaneously, 200 µl of 2 mg/ml OVA antigen was intravenously injected. After 3 hours, the thickness of the skin swelling at the modelling site was measured.
Data of relevant indicators for animals in each group were expressed as mean ± standard deviation (Mean ± SD) and statistically analysed and plotted using GraphPad software.

[2] = molecular target: hERG potassium channels (Homo sapiens, UniProt Q12809); test: in vitro
Chain of hERG potassium channels (Q12809 whole entry): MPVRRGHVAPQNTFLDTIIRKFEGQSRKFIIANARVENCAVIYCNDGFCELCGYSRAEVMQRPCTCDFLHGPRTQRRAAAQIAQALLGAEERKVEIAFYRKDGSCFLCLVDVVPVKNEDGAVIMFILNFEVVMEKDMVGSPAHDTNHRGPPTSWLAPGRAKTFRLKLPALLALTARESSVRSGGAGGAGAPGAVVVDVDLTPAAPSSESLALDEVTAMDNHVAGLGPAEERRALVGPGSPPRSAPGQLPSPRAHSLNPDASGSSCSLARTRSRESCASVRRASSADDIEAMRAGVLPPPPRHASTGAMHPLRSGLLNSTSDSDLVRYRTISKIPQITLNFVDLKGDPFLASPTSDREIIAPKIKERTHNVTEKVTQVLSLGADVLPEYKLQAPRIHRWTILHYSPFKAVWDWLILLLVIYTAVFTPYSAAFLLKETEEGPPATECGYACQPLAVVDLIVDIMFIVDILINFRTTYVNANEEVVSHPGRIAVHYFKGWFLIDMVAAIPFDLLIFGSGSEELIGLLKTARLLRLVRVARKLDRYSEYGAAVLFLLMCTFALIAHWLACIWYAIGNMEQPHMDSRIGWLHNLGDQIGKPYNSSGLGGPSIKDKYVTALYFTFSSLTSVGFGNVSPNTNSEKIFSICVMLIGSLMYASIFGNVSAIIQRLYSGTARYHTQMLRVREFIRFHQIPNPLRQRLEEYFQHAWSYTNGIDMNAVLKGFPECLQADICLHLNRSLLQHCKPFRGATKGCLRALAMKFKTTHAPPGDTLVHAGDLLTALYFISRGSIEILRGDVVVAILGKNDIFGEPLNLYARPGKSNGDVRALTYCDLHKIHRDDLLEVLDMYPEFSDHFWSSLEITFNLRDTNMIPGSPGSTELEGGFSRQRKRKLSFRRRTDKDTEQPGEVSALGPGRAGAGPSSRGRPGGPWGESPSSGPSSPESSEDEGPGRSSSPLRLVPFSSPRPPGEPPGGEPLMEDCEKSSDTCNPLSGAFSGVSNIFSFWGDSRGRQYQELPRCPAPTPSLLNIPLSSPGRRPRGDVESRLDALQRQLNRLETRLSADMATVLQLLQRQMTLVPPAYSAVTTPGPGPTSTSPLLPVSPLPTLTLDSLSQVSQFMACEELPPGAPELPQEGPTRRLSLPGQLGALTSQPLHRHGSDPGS

[3] = test system: B cell activation in human whole blood; test: Inhibition of B cell activation in human whole blood (CD69 expression, flow cytometry); format: cell-based; conditions: anti-human IgD 30 µg/ml + IL-4 5 ng/ml, 18 hours, CD69-positive CD19-positive B cells, read-out: IC50 values of inhibitory activity against B cell activation in human whole blood
Excerpt: Test example 2: Inhibitory activity of compounds of the present disclosure against B cell activation in human whole blood • I. Experimental materials and instruments • 1. Human whole blood (internal recruitment) • 2. Goat F(ab')2 anti-human IgD-UNLB (SouthernBiotech, 2032-01) • 3. DPBS (1x) (Gibco, 14190-144) • 4. Recombinant human IL-4 (Peprotech, 200-04) • 5. Brilliant Violet 421™ anti-human CD19 antibody (Biolegend, 302234) • 6. APC anti-human CD69 antibody (Biolegend, 310910) • 7. APC mouse IgG1, κ isotype control antibody (Biolegend, 400120) • 8. eBioscience™ 10X RBC lysis buffer (multi-species) (Thermo, 004300-54) • 9. NEST 96-well deep-well plate (Wuxi NEST Biotechnology Co., Ltd., 503501) • 10. 96-well round-bottom plate (Corning, 3788) • 11. 96-well flat-bottom plate (Corning, 3599) • 12. Attune™ NxT acoustic focusing cytometer (ThermoFisher Scientific, 4.2.0) • 13. Cell incubator (Thermo, Forma steri-cycle i160) • II. Experimental procedure
B cells express the B cell receptor (BCR) complex on their surface. When B cells in human whole blood are induced to activate, they can trigger the downstream signalling pathways of the receptor and express the activation marker CD69. The expression of CD69 in activated B cells was detected by flow cytometry, and the IC50 of the compounds were calculated to evaluate the effects of the compounds on BCR activation.
The test compounds dissolved in 100% DMSO at 20 mM were diluted with 100% DMSO to a concentration of 1 mM, which represents the 200× concentration of the highest compound concentration point in the reaction system. The compounds at this concentration were then subjected to 8-point 4-fold serial dilution with 100% DMSO. The positive control wells were set with 100% DMSO, whereas the negative control wells were set with Remiburtinib at a final concentration of 5 µM. The serially diluted compounds and 100% DMSO were further diluted 10-fold in PBS to achieve the 20× concentration, followed by thorough mixing.
After thorough mixing, the whole blood sample was transferred to a loading reservoir and then dispensed into a 96-well flat-bottom plate at 80 µl per well. The compound dilution was dispensed at 5 µl per well. The 11th column of each row was designated as the negative control well, with 5 µl of 100 µM positive control drug added to each well. After thorough mixing for 5 min, the plate was incubated in a 37°C incubator for 30 min. Human IgD antibody was diluted 1.67-fold with PBS to a concentration of 300 µg/mL, and 10 µl of the diluted solution was added to each well of the culture plate (final concentration: 30 µg/ml). Human IL-4 (stock solution at 50 µg/ml) was diluted 500-fold with PBS to a concentration of 100 ng/mL, and 5 µl of the diluted solution was added to each well of the culture plate (final concentration: 5 ng/ml). After thorough mixing for 5 min, the plate was cultured in a 37°C incubator with 5% CO2 for 18 hours.
Flow cytometry detection: CD69-APC, CD19-BV421 and CD4-APC antibodies, and the isotype control antibodies for CD69-APC were removed from 4°C storage. Each antibody was added at 1 µl per well. After thorough mixing for 5 min, the plate was incubated for 30 min at 4°C (refrigerator) in the dark for staining. The 10X RBC lysis buffer was diluted in water to prepare 1X RBC lysis buffer. Aliquots of 1 ml of the lysis buffer were dispensed into each well of a 96-well deep-well plate in advance. The stained samples were transferred into the deep-well plate containing the lysis buffer for erythrocyte lysis. After completing the transfer of an entire plate, the plate was incubated in the dark for 15-20 min. Upon completion of lysis, the plate was centrifuged at 2000 rpm for 4 min. Each well was washed with 1 ml of PBS. Subsequently, the cells were resuspended in 200 µl of PBS, transferred to a 96-well plate, and washed twice more using the same procedure. The samples were resuspended in 200 µl of PBS per well and then subjected to flow cytometry detection. […]

C=CC(=O)N(C)CCOc1c(N)ncnc1-c1cc(F)cc(NC(=O)c2cc3c(cc2F)C2(CC2)CO3)c1C [Example 3, N-(3-(6-amino-5-(2-(N-methacrylamido)ethoxy)pyrimidin-4-yl)-5-fluoro-2-methylphenyl)-5-fluoro-2H-spiro[benzofuran-3,1'-cyclopropane]-6-carboxamide]
inhibitory effect on skin swelling across doses ([1]; 30, 100 and 150 mpk): dose-dependent inhibitory effect | inhibition of OVA-induced skin swelling in mice ([1]; 30 mpk): no statistically significant difference | inhibition of OVA-induced skin swelling in mice ([1]; 100 mpk): significantly inhibited | inhibition of OVA-induced skin swelling in mice ([1]; 150 mpk): significantly inhibited | IC50 [2]: > 12.3 µM | IC50 [3]: 10 to 100 nM
